In patent US12091385B2, “Pyridinylcyanoguanidine derivative and use thereof” (Rushi Biotech (Hangzhou) Co., Ltd, priority 2021, dated 2024):

Assays:
Format in all cases: cell-based
[1] = test system: Human lung adenocarcinoma cell A549; assay: CCK-8 cell proliferation assay, A549; details: A549 cells, 72 hrs with drug, CCK-8, OD 450 nm
Experimental: (§1) The effect of samples on the proliferation of human tumor cells in vitro was determined by CCK-8 cell proliferation assay.
(§2) The cells were assayed through a method including the following steps: • 1) The cells were digested, counted, and prepared into a cell suspension in a corresponding culture medium (Table 1) (5×10^4 cells/ml for CFPAC-1 and RPMI 8226, and 3.5×10^4 cells/ml for rest cells). The cell suspension was added to each well of a 96-well plate in 100 μl/well. • 2) Then the 96-well plate was incubated for 24 hrs in an incubator at 37° C. and 5% CO2. • 3) The drug was diluted with the culture medium to the required working concentration. 100 μl of the corresponding drug containing medium was added to each well.

[2] = test system: Human multiple myeloma cell RPMI 8226; assay: CCK-8 cell proliferation assay, RPMI 8226; details: RPMI8226 cells, 72 hrs with drug, CCK-8, OD 450 nm
Experimental: as §1, §2

[3] = test system: Human pancreatic cancer cell CFPAC-1; assay: CCK-8 cell proliferation assay, CFPAC-1; details: CFPAC-1 cells, 72 hrs with drug, CCK-8, OD 450 nm
Experimental: as §1, §2

[4] = test system: Human esophageal cancer cell TE-1; assay: CCK-8 cell proliferation assay, TE-1; details: TE-1 cells, 72 hrs with drug, CCK-8, OD 450 nm
Experimental: as §1, §2

[5] = test system: Human colon cancer cell HCT-116; assay: CCK-8 cell proliferation assay, HCT-116; details: HCT116 cells, 72 hrs with drug, CCK-8, OD 450 nm
Experimental: as §1, §2

[6] = test system: Human gastric cancer cell MKN45; assay: CCK-8 cell proliferation assay, MKN45; details: MKN-45 cells, 72 hrs with drug, CCK-8, OD 450 nm
Experimental: as §1, §2

[7] = test system: Human hepatoma cell HepG2; assay: CCK-8 cell proliferation assay, HepG2; details: HepG2 cells, 72 hrs with drug, CCK-8, OD 450 nm
Experimental: as §1, §2

IC50 [1] | IC50 [2] | IC50 [3] | IC50 [4] | IC50 [5] | IC50 [6] | IC50 [7] | Structure (SMILES)
35 nM | 34 nM | 25 nM | 95 nM | 66 nM | 43 nM | 82 nM | N#CN=C(NCCCCCN1CCN(C(=O)c2cccs2)CC1)Nc1ccncc1 [BSS-PC004, 2-cyano-1-(5-(1-(2-thienylformyl)piperazine-4-yl)pentyl)-3-(4-pyridinyl)guanidine]
71 nM | 38 nM | 46 nM | 64 nM | 73 nM | 52 nM | 83 nM | N#CN=C(NCCCCCN1CCN(C(=O)c2ccccc2)CC1)Nc1cccnc1 [BSS-PC019, 2-cyano-1-(5-((1-benzoyl)piperazine-4-yl)pentyl)-3-(3-pyridinyl)guanidine]
50 nM | 41 nM | 47 nM | 90 nM | 82 nM | 61 nM | 88 nM | COc1cccc(OC)c1C(=O)N1CCC(CCCCCCNC(=NC#N)Nc2ccncc2)C1 (stereo not drawn) [BSS-PC055, 2-cyano-1-(6-(1-(2,6-dimethoxybenzoyl)pyrrolidine-3-yl)hexyl)-3-(4-pyridinyl)guanidine]
66 nM | 42 nM | 51 nM | 62 nM | 75 nM | 64 nM | 83 nM | N#CN=C(NCCCCCCC1CCN(C(=O)c2ccco2)C1)Nc1cc(Cl)nc(Cl)c1 (stereo not drawn) [BSS-PC080]
47 nM | 33 nM | 44 nM | 42 nM | 73 nM | 39 nM | 39 nM | N#CN=C(NCCCCCCC1CCN(C(=O)c2ccc[nH]2)C1)Nc1ccncc1 (stereo not drawn) [BSS-PC056, 2-cyano-1-(6-(1-(2-pyrrolylformyl)pyrrolidine-3-yl)hexyl)-3-(4-pyridinyl)guanidine]
79 nM | 49 nM | 55 nM | 118 nM | 106 nM | 65 nM | 93 nM | N#CN=C(NCCCCCN1CCN(C(=O)C2Cc3ccccc3O2)CC1)Nc1ccncc1 (stereo not drawn) [BSS-PC021, 2-cyano-1-(5-(1-(2-benzotetrahydrofurylfuryl)piperazine-4-yl)pentyl)-3-(4-pyridinyl)guanidine]
45 nM | 29 nM | 36 nM | 92 nM | 51 nM | 69 nM | 83 nM | N#CN=C(NCCCCCC1CCN(C(=O)c2cccs2)C1)Nc1cccnc1 (stereo not drawn) [BSS-PC043, 2-cyano-1-(5-(1-(2-thienylformyl)pyrrolidine-3-yl)pentyl)-3-(3-pyridinyl)guanidine]
69 nM | 40 nM | 46 nM | 83 nM | 109 nM | 62 nM | 90 nM | N#CN=C(NCCCCCCC1CCN(C(=O)C2CCCS2)C1)Nc1cccnc1 (stereo not drawn) [BSS-PC063, 2-cyano-1-(6-(1-(2-tetrahydrothienylformyl)pyrrolidine-3-yl)hexyl)-3-(3-pyridinyl)guanidine]
50 nM | 31 nM | 35 nM | 55 nM | 66 nM | 39 nM | 51 nM | N#CN=C(NCCCCCC1CCN(C(=O)c2ccccc2)C1)Nc1ccncc1 (stereo not drawn) [BSS-PC028, 2-cyano-1-(5-((1-benzoyl)pyrrolidine-3-yl)pentyl)-3-(4-pyridinyl)guanidine]
79 nM | 52 nM | 64 nM | 90 nM | 86 nM | 58 nM | 117 nM | N#CN=C(NCCCCCC1CCN(C(=O)c2cc3ccccc3[nH]2)C1)Nc1ccncc1 (stereo not drawn) [BSS-PC045, 2-cyano-1-(5-(1-(2-indolylformyl)pyrrolidine-3-yl)pentyl)-3-(4-pyridinyl)guanidine]
57 nM | 43 nM | 58 nM | 53 nM | 91 nM | 64 nM | 82 nM | N#CN=C(NCCCCCN1CCN(C(=O)c2sccc2F)CC1)Nc1ccncc1 [BSS-PC025, 2-cyano-1-(5-(1-(3-fluoro-2-thienylformyl)piperazine-4-yl)pentyl)-3-(4-pyridinyl)guanidine]
29 nM | 24 nM | 29 nM | 39 nM | 57 nM | 40 nM | 44 nM | COc1cccc(OC)c1C(=O)N1CCC(CCCCCNC(=NC#N)Nc2cccnc2)C1 (stereo not drawn) [BSS-PC052, 2-cyano-1-(5-(1-(2,6-dimethoxybenzoyl)pyrrolidine-3-yl)pentyl)-3-(3-pyridinyl)guanidine]
64 nM | 41 nM | 47 nM | 92 nM | 92 nM | 43 nM | 98 nM | N#CN=C(NCCCCCCC1CCN(C(=O)c2cc3ccccc3o2)C1)Nc1ccncc1 (stereo not drawn) [BSS-PC072, 2-cyano-1-(6-(1-(2-benzofurylformyl)pyrrolidine-3-yl)hexyl)-3-(4-pyridinyl)guanidine]
48 nM | 28 nM | 38 nM | 57 nM | 101 nM | 72 nM | 93 nM | N#CN=C(NCCCCCN1CCN(C(=O)c2ccco2)CC1)Nc1ccnc(F)c1 [BSS-PC013]
35 nM | 29 nM | 31 nM | 74 nM | 55 nM | 42 nM | 57 nM | N#CN=C(NCCCCCC1CCN(C(=O)c2[nH]ccc2F)C1)Nc1ccncc1 (stereo not drawn) [BSS-PC049, 2-cyano-1-(5-(1-(3-fluoro-2-pyrrolylformyl)pyrrolidine-3-yl)pentyl)-3-(4-pyridinyl)guanidine]
42 nM | 33 nM | 36 nM | 51 nM | 60 nM | 34 nM | 47 nM | N#CN=C(NCCCCCC1CCN(C(=O)c2occc2F)C1)Nc1ccncc1 (stereo not drawn) [BSS-PC048, 2-cyano-1-(5-(1-(3-fluoro-2-furylformyl)pyrrolidine-3-yl)pentyl)-3-(4-pyridinyl)guanidine]
26 nM | 29 nM | 25 nM | 57 nM | 52 nM | 61 nM | 68 nM | N#CN=C(NCCCCCC1CCN(C(=O)c2ccco2)C1)Nc1ccncc1 (stereo not drawn) [BSS-PC032, 2-cyano-1-(5-(1-(furoyl)pyrrolidine-3-yl)pentyl)-3-(4-pyridinyl)guanidine]
46 nM | 23 nM | 34 nM | 49 nM | 47 nM | 39 nM | 58 nM | N#CN=C(NCCCCCCC1CCN(C(=O)c2ccco2)C1)Nc1cccnc1 (stereo not drawn) [BSS-PC062, 2-cyano-1-(6-(1-(furoyl)pyrrolidine-3-yl)hexyl)-3-(3-pyridinyl)guanidine]
67 nM | 39 nM | 33 nM | 86 nM | 69 nM | 53 nM | 61 nM | N#CN=C(NCCCCCN1CCN(C(=O)C2CCCN2)CC1)Nc1ccncc1 (stereo not drawn) [BSS-PC010, 2-cyano-1-(5-(1-(2-pyrrolidinylformyl)piperazine-4-yl)pentyl)-3-(4-pyridinyl)guanidine]
29 nM | 19 nM | 26 nM | 46 nM | 41 nM | 50 nM | 49 nM | N#CN=C(NCCCCCN1CCN(C(=O)c2ccccc2)CC1)Nc1ccncc1 [BSS-PC003]
66 nM | 42 nM | 50 nM | 68 nM | 63 nM | 55 nM | 79 nM | N#CN=C(NCCCCCC1CCN(C(=O)c2cc3ccccc3o2)C1)Nc1ccncc1 (stereo not drawn) [BSS-PC047, 2-cyano-1-(5-(1-(2-benzofurylformyl)pyrrolidine-3-yl)pentyl)-3-(4-pyridinyl)guanidine]
39 nM | 32 nM | 41 nM | 52 nM | 87 nM | 33 nM | 68 nM | N#CN=C(NCCCCCC1CCN(C(=O)c2sccc2F)C1)Nc1ccncc1 (stereo not drawn) [BSS-PC050, 2-cyano-1-(5-(1-(3-fluoro-2-thienylformyl)pyrrolidine-3-yl)pentyl)-3-(4-pyridinyl)guanidine]
71 nM | 45 nM | 42 nM | 83 nM | 74 nM | 61 nM | 85 nM | N#CN=C(NCCCCCC1CCN(C(=O)C2Cc3ccccc3O2)C1)Nc1ccncc1 (stereo not drawn) [BSS-PC046, 2-cyano-1-(5-(1-(2-benzotetrahydrofurylfuryl)pyrrolidine-3-yl)pentyl)-3-(4-pyridinyl)guanidine]
32 nM | 27 nM | 16 nM | 79 nM | 33 nM | 41 nM | 86 nM | N#CN=C(NCCCCCC1CCN(C(=O)C2CCCN2)C1)Nc1ccncc1 (stereo not drawn) [BSS-PC035, 2-cyano-1-(5-(1-(2-pyrrolidinylformyl)pyrrolidine-3-yl)pentyl)-3-(4-pyridinyl)guanidine]
